# Test results: patent publication US20120225417A1, “Methods, Compositions and Kits for the Evaluation and Preservation of Sperm” (I'Alliance Boviteq Inc., priority 2011, published 2012)
# Assays:
# Type in all cases: biochemical
# [1] = test system: 3′-5′ cAMP-PDE activity in bovine seminal plasma; test: 3′-5′ cAMP-PDE assay with family-specific PDE inhibitors in bovine seminal plasma; details: thawed bovine seminal plasma, papaverine 400 nM (FIG. 8)
# Protocol: Fresh ejaculated bovine sperm, at known concentrations, was transported for three hours at 18° C. Upon arrival specimens were centrifuged at 400×g during 10 minutes at room temperature to gently pull down spermatozoa. Supernatant was transferred and centrifuged again at 6 000×g at 4° C. during 20 minutes to pull down any remaining spermatozoa. Supernatant was then transferred and centrifuged at 6 000×g at 4° C. during 20 minutes to remove any remaining debris. Seminal plasma (SP) samples were kept on ice until used for PDE assay and stored at −80° C. for further characterization.
# (§1) The cAMP enzymatic assay (PDE assay) was conducted as previously described (Sasseville, M. et al., (2006). BMC developmental biology 6, 47). Samples were directly subjected to PDE assay. 3′-5′ cAMP-PDE activity was assessed at 34° C. in 200 μL final volume using 1 μM cAMP as substrate (Thompson, W. J. et al., (1979). Adv Cyclic Nucleotide Res 10, 69-92) with minor modifications. […] Knowing the exact concentrations of spermatozoa in each SP sample, total 3′-5′ cAMP-PDE activity was reported as the quantity of cAMP (fMol) hydrolysed per minute per the number of spermatozoa (fMol/min/10^6 spz). […] To determine which PDE family contributes to total 3′-5′ cAMP-PDE activity, the activity measured in the presence of the respective inhibitors was subtracted from the total. […]
# [2] = test system: 3′-5′ cAMP-PDE activity in bovine cauda epididymal plasma; test: 3′-5′ cAMP-PDE assay in bovine cauda epididymal plasma; details: thawed epididymal plasma 0.5 μL; Papaverine (400 μM) as printed (FIG. 5)
# Protocol: Epididymis from sexually mature bulls was obtained from a local slaughterhouse. Immediately after slaughtering, testicles were kept on ice and brought to the laboratory within 3 hours. Epididymis was dissected and cleared from connective tissues. As already described (Frenette, G. et al., (2002). Biol Reprod 67, 308-313), fluid from the cauda epididymis was collected by retrograde flushing. Epididymal plasma was isolated according to the same centrifugations steps than the seminal plasma as described below.
# as §1
# [3] = test system: 3′-5′ cAMP-PDE activity in human spermatozoa; test: 3′-5′ cAMP-PDE assay with family-specific PDE inhibitors in human spermatozoa; details: 95% fractionation method, papaverine 400 nM (FIG. 18)
# Protocol: Ejaculates were obtained by masturbation from healthy donors after a minimum of 2 days of sexual abstinence. After ejaculation, semen was kept at room temperature to allow liquefaction. To prepare human ejaculate, three different fractionation methods were used: “G2 method”, “40-80% fractionation” or “95% fractionation”.
# For “G2 method”, according to the ejaculate volume, approximately 1 ml of semen was added to 5 ml of isotonic solution: HEPES-buffered saline (HBS: 25 mM Hepes, 130 mM NaCl, 4 mM KCl, 0.5 mM MgCl2, 14 mM fructose, pH 7.6) in a 15 mL falcon tube to wash the spermatozoa from the seminal plasma. […] Then, the samples were vortex-agitated for 30 sec and kept on the ice until ready to run the assay. The concentration of sperm cells was measured according to hemacytometer method. […]
# The cAMP enzymatic assay (PDE assay) was conducted as previously described (Sasseville, M. et al., (2006). BMC developmental biology 6, 47). […] 3′-5′ cAMP-PDE activity was assessed at 34° C. in 200 μL final volume using 1 μM cAMP as substrate (Thompson, W. J. et al., (1979). Adv Cyclic Nucleotide Res 10, 69-92) with minor modifications. […] Knowing the exact concentrations of spermatozoa in each SP sample, total 3′-5′ cAMP-PDE activity was reported as the quantity of cAMP (fMol) hydrolysed per minute per the number of spermatozoa (fMol/min/10^6 spz). […]
structure (smiles),measurement,setting,value
COc1ccc(Cc2nccc3cc(OC)c(OC)cc23)cc1OC [Papaverine],Share of PDE activity in bovine seminal plasma that is papaverine-sensitive,[1],more than 50%
same,Papaverine-sensitive PDE activity in bovine epididymal fluid (in words),[2],low
same,Share of cAMP-PDE activity that is papaverine-sensitive,[3],more than 50%
